From article PMC11969438 (Inorganic Chemistry Frontiers, 2025) come the findings set out here.

Data set [1] in a line: Reduction kinetics with 10 eq. L-ascorbic acid in phosphate buffer, UHPLC. The class given is physicochemical. The note with it: 10 eq. AA, PB pH 7.4, 20 °C, after 24 h. Here is the method:
PB (150 mM, pH 7.4) containing 1 mM platinum compound was incubated at 20 °C, with and without the addition of 10 eq. of AA. The reaction was monitored using a Thermo Scientific Dionex UltiMate 3000 UHPLC system with a Waters Acquity UPLC BEH C18 1.7 μm 3.0 × 50 mm column. Milli-Q water containing 0.1% formic acid and acetonitrile containing 0.1% formic acid were used as eluents. A gradient of 5–95% over 5 min was used with a flow of 0.6 mL min^−1. To evaluate the current state of the reaction, the peak area of the parental complex was used.

In data set [2] the test system is THP1-Dual cells. Put plainly: Western blot analysis of STING downstream pathway, DNA damage and cell death markers. The class given is cell-based, human. Particulars: 24 h. The protocol: The THP1-Dual cell model was seeded at 1 × 10^6 cells per well in six-well plates. After 24 h of recovery, the compounds were applied at the concentrations indicated. After 24 h of drug exposure, whole-cell protein isolation was performed as described previously.[14] Sodium dodecyl sulfate polyacrylamide gel electrophoresis was performed. Proteins were transferred onto polyvinylidene difluoride membranes (Thermo Scientific, Waltham, MA, USA). Antibodies targeting STING (##13 647; 1 : 1000), phospho-STING (#19 781; 1 : 500), TBK1 (#3504; 1 : 500), IRF-3 (#4302; 1 : 500), phospho-p65 (#3033; 1 : 500), ISG15 (#2743; 1 : 1000), caspase-3 (#9665; 1 : 1000), cleaved caspase-3 (#9661; 1 : 1000), PARP (#9532; 1 : 1000), and cleaved PARP (#9541; 1 : 1000) were purchased from Cell Signaling Technology (Danvers, MA, USA). The p65 antibody (#sc-372; 1 : 1000) was purchased from Santa Cruz and the phospho-H2A.X antibody (#05-636-I; 1 : 500) was obtained from Merck (Darmstadt, Germany). The anti-β-actin (#5441; 1 : 2000) antibody was obtained from Sigma-Aldrich. The anti-mouse IgG (#A0168; 1 : 10 000) horseradish peroxidase (HRP)-coupled secondary antibody was purchased from Sigma-Aldrich, and the anti-rabbit IgG (#7074; 1 : 5000) HRP-linked secondary antibody was obtained from Cell Signaling Technology.

Data set [3] is described as follows: Hematological analysis 24 h after the second dose. The note with it: 24 h after second dose; for anemia: two i.v. doses equimolar to 9 mg kg^−1 oxaliplatin. Here is the method:
Mice were kept in groups of four per cage with sterilized paper-based environmental enrichment and food and water ad libitum, under pathogen-free conditions and a controlled environment with a 12 h light–dark cycle. Syngeneic models of colorectal carcinoma were generated via subcutaneous injection of CT-26 cells (0.5 × 10^6 cells in 50 μL of serum-free RPMI-1640 medium) into the right flank of 8–12 weeks old BALB/c mice. […] All animals were euthanized 24 h after the second dose. […] To determine the anticancer efficacy of the investigated compounds, treatment started 4 d after tumor implantation, when all tumors were measurable (>25 mm^3) using a twice-weekly treatment scheme for two weeks. Tumor size was determined daily via manual caliper measurement. The tumor volume was calculated as tumor volume = (length × diameter × diameter)/2. The overall condition, shape, and activity of the animals were assessed daily. Peripheral blood was collected from the submandibular vein in K3E K3EDTA tubes (Greiner Bio-One; Kremsmünster, AUT) on ice and was analyzed for hematological parameters (red blood cells (RBCs), hemoglobin (HGB), hematocrit (HCT), red cell distribution width (RDW), mean corpuscular volume (MCV), white blood cells (WBCs), lymphocytes (LYM), monocytes (MO), granulocytes (GRA), and platelets (PLT) using a Vet ABC hematology analyzer (scil Animal Care GmbH, Viernheim, Germany). EDTA-blood was centrifuged (900g, 10 min) twice and the supernatant (EDTA-plasma) was stored at −20 °C for subsequent cytokine/chemokine analysis using a Luminex detection platform. All animal experiments were performed with humane endpoints based on Federation of European Laboratory Animal Science Associations guidelines and according to the regulations of the Ethics Committee for the Care and Use of Laboratory Animals at the Medical University Vienna (proposal number BMBWF 2023–0.122.324). Animals were euthanized upon reaching a tumor volume of >1500 mm^3, a loss in body weight (>20%), tumor ulceration or other indications of deteriorated health. Animals were euthanized via cervical dislocation.

The test system of data set [4] is THP1-Dual cells. Nature of the data set: Quantitative RT-PCR of target genes downstream of STING. Particulars: 24 h, prodrugs 100 μM, MSA-2 25 μM. The class given is cell-based, human. Here is the method: The THP1-Dual cell model was seeded at 1 × 10^6 cells per well in six-well plates. After 24 h of recovery, the compounds were applied at the concentrations indicated. After 24 h of drug exposure, total RNA was isolated using TRIzol reagent (Thermo Fisher Scientific, MA, USA), as described previously.[12] RNA was reverse transcribed into cDNA using RevertAid Reverse Transcriptase (Thermo Fisher Scientific). Real-time PCR was performed using the GoTaq® RT-qPCR system (Promega) with a CFX96 Touch Real-Time PCR Detection System (Bio-Rad Laboratories). Relative mRNA levels were quantified using the 2^−ddCT method.[54] RPL41 was used as a housekeeping gene. Human-specific primers were purchased from Eurofins Genomics (Ebersberg, Germany) with the following sequences: RPL41: fwd (5′-[…]-3′), rev (5′-[…]-3′); IFNB1: fwd (5′-CTTGGATTCCTACAAAGAAGCAGC-3′), rev (5′-[…]-3′); ISG15: fwd (5′-[…]-3′), rev (5′-[…]-3′); IFIT1: fwd (5′-[…]-3′), rev (5′-[…]-3′); CXCL10: fwd (5′-[…]-3′), rev (5′-[…]-3′); and CCL5: fwd (5′-[…]-3′), rev (5′-[…]-3′).

In data set [5] the test system is THP1-Dual cells. Put plainly: Intracellular platinum accumulation in vitro by ICP-MS. It counts as cell-based, human. The note with it: 3 h exposure; for cellular platinum accumulation: compared to oxaliplatin. The protocol: The THP1-Dual cell model was seeded at 1 × 10^6 cells per well in six-well plates. After 24 h of recovery, the compounds were applied at the concentrations indicated in triplicate. After 3 h of drug exposure, the cells were prepared as published previously.[13] […] The lysate was filled up to 8 mL with water. The platinum concentration was determined by ICP-MS analysis. Platinum and rhenium standards were derived from CPI International (Amsterdam, the Netherlands). The total platinum content was determined with an Agilent 7800 quadrupole-based ICP-MS instrument (Agilent Technologies, Tokyo, Japan) equipped with an Agilent SPS 4 autosampler (Agilent Technologies, Tokyo, Japan) and a MicroMist nebulizer at a sample uptake rate of approximately 0.2 mL min^−1. […] Argon was used as a plasma gas (15 L min^−1) and as a carrier gas (∼1.1 L min^−1). The dwell time was set to 0.1 s and the measurements were performed in 12 replicates with 100 sweeps. Rhenium served as an internal standard for platinum.

For the compound `COCCOCCOCCOCCNC(=O)[O][Pt-2]12([O]C(=O)CCC(=O)c3cc4cc(OC)c(OC)cc4s3)([NH2+][C@@H]3CCCC[C@H]3[NH2+]1)[O]C(=O)C(=O)[O]2` [Ox-MSA-PEG-Ca, (OC-6-34)-[(1R,2R)-1,2-cyclohexanediamino]-oxalato-[4-(5,6-dimethoxybenzo[b]thiophen-2-yl)-4-oxobutylcarboxylato]-[3,6,9,12-tetraoxatridecan-1-amino]platinum(IV)], the “complex remaining intact in presence of AA” value in data set [1] is “very well comparable to Ox-MSA-PEG-Es”. For the same compound, in the data set on THP1-Dual cells [2], the “DNA damage (p-H2A.X upregulation, cleavage of caspase-3 and PARP)” value is listed as “induced DNA damage”; the “induction of ISG15” value was “triggered”. Moreover, the anemia entry in data set [3] is recorded as “not”. Moreover, the “mRNA induction of immune response genes (IFN-β, ISG15, IFIT1, CXCL10, CCL5)” value in the data set with THP1-Dual cells [4] is recorded as “distinctly raised transcript levels to a comparable extent as free MSA-2”.

For the compound `O=C1[O][Pt]2([NH][C@@H]3CCCC[C@H]3[NH]2)[O]C1=O` [oxaliplatin, reference compound], the cellular platinum accumulation result in the data set with THP1-Dual cells [5] is reported as “accumulated dose-dependently”. Besides, in data set [3], the “red blood cell counts (RBCs), hematocrit (HCT), red cell distribution width (RDW)” value was “clearly lowered” and the anemia result is recorded as “anemia”.

With `COCCOCCOCCOCCC(=O)[O][Pt-2]12([O]C(=O)CCC(=O)c3cc4cc(OC)c(OC)cc4s3)([NH2+][C@@H]3CCCC[C@H]3[NH2+]1)[O]C(=O)C(=O)[O]2` [Ox-MSA-PEG-Es, (OC-6-44)-[(1R,2R)-1,2-cyclohexanediamino]-oxalato-[4-(5,6-dimethoxybenzo[b]thiophen-2-yl)-4-oxobutylcarboxylato]-[2,5,8,11-tetraoxatetradecanoato]platinum(IV)], the “complex remaining intact in presence of AA” value in data set [1] is given as around 80%. Besides, the “DNA damage (p-H2A.X upregulation, cleavage of caspase-3 and PARP)” value with THP1-Dual cells [2] is listed as “induced DNA damage”. In addition, in the data set with THP1-Dual cells [5] (10 μM), the “cellular platinum content vs oxaliplatin” value is on record as “significantly higher platinum content”. Also, in the data set with THP1-Dual cells [5] (50 μM, without statistical significance), the “intracellular platinum levels vs oxaliplatin” value was “lower intracellular platinum levels”. Also, the cellular platinum accumulation result in the data set with THP1-Dual cells [5] is on record as “did not show a comparable amount of platinum hyper-accumulation”. Besides, the “mRNA induction of immune response genes (IFN-β, ISG15, IFIT1, CXCL10, CCL5)” value with THP1-Dual cells [4] was “low propensity”.
